# In ChEMBL document CHEMBL1201862, “PubChem BioAssay data set” (2004):
#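 Dose response: 5 concentrations. Exposure: 48 h. Format: 96-well plates. Endpoint: linear interpolation; highest concentration if not reached. Here, GI50 denotes the concentration required for 50% inhibition of growth.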 The source made the active and inactive calls. Cut-off read from the data, not from the text of the source: active = GI50 up to about 1.1 µM and inactive = higher.
# Columns and labels:
# Experiment in all cases: NCI-60 cell line screen, 48 h
# 786-0 = tested on: 786-0
# A549 = tested on: A549
# BT-549 = tested on: BT-549
# DU-145 = tested on: DU-145
# HCT-116 = tested on: HCT-116
# HCT-15 = tested on: HCT-15
# HT-29 = tested on: HT-29
# MCF7 = tested on: MCF7
# Malme-3M = tested on: Malme-3M
# NCI-H226 = tested on: NCI-H226
# NCI-H23 = tested on: NCI-H23
# NCI/ADR-RES = tested on: NCI/ADR-RES
# OVCAR-8 = tested on: OVCAR-8
# RXF 393 = tested on: RXF 393
# SF-268 = tested on: SF-268
# SK-OV-3 = tested on: SK-OV-3
# SR = tested on: SR
# UACC-257 = tested on: UACC-257
# RPMI-8226 = tested on: RPMI-8226
# SK-MEL-28 = tested on: SK-MEL-28
Structure (SMILES),GI50 (786-0),GI50 (A549),GI50 (BT-549),GI50 (DU-145),GI50 (HCT-116),GI50 (HCT-15),GI50 (HT-29),GI50 (MCF7),GI50 (Malme-3M),GI50 (NCI-H226),GI50 (NCI-H23),GI50 (NCI/ADR-RES),GI50 (OVCAR-8),GI50 (RXF 393),GI50 (SF-268),GI50 (SK-OV-3),GI50 (SR),GI50 (UACC-257),GI50 (RPMI-8226),GI50 (SK-MEL-28)
Cc1ccc(-c2n[nH]c(=O)n2N2C(=O)C=CC2=O)cc1,> 100 µM (inactive),> 100 µM (inactive),> 100 µM (inactive),> 100 µM (inactive),> 100 µM (inactive),> 100 µM,> 100 µM (inactive),> 100 µM (inactive),> 100 µM (inactive),> 100 µM (inactive),> 100 µM (inactive),> 100 µM (inactive),> 100 µM (inactive),> 100 µM (inactive),> 100 µM (inactive),> 100 µM (inactive),> 100 µM (inactive),> 100 µM (inactive),–,–
CC(=O)C(N1CCCCC1)C(O)(C(F)(F)F)C(F)(F)F (stereo not given),> 100 µM (inactive),> 100 µM (inactive),> 100 µM (inactive),> 100 µM (inactive),58.3 µM (inactive),79.3 µM,> 100 µM (inactive),> 100 µM (inactive),> 100 µM (inactive),> 100 µM (inactive),39.5 µM (inactive),> 100 µM (inactive),> 100 µM (inactive),38.5 µM (inactive),–,> 100 µM (inactive),> 100 µM (inactive),> 100 µM (inactive),81.8 µM (inactive),> 100 µM (inactive)
c1ccc(-c2nc(-c3ccccc3SSc3ccccc3-c3nc(-c4ccccc4)nn3-c3ccccc3)n(-c3ccccc3)n2)cc1,> 100 µM (inactive),> 100 µM (inactive),> 100 µM (inactive),> 100 µM (inactive),> 100 µM (inactive),> 100 µM,–,> 100 µM (inactive),> 100 µM (inactive),> 100 µM (inactive),> 100 µM (inactive),> 100 µM (inactive),> 100 µM (inactive),> 100 µM (inactive),> 100 µM (inactive),> 100 µM (inactive),> 100 µM (inactive),–,> 100 µM (inactive),> 100 µM (inactive)
O=C1N[C@H]2c3c(Cl)sc(Cl)c3[C@@H](O)[C@H]2O1,> 100 µM (inactive),> 100 µM (inactive),> 100 µM (inactive),> 100 µM (inactive),> 100 µM (inactive),> 100 µM,> 100 µM (inactive),> 100 µM (inactive),> 100 µM (inactive),–,–,> 100 µM (inactive),> 100 µM (inactive),> 100 µM (inactive),> 100 µM (inactive),> 100 µM (inactive),> 100 µM (inactive),> 100 µM (inactive),> 100 µM (inactive),> 100 µM (inactive)
COC(=O)C1(Cc2ccc3c(c2)CCC3)Cc2cc3c(cc2C1)CCC3,51.4 µM (inactive),28.6 µM (inactive),42.7 µM (inactive),71.4 µM (inactive),35.1 µM (inactive),31.6 µM,22.5 µM (inactive),22.5 µM (inactive),–,33.7 µM (inactive),27.3 µM (inactive),59.8 µM (inactive),54.2 µM (inactive),23.9 µM (inactive),30.3 µM (inactive),> 100 µM (inactive),78.7 µM (inactive),19.5 µM (inactive),53 µM (inactive),60.1 µM (inactive)
N#C/C(=C1C=C(Br)/C(=N\O)C=C\1Cl)c1cccc2ccccc12,3.34 µM (inactive),9.84 µM (inactive),7.43 µM (inactive),3.31 µM (inactive),4 µM (inactive),4.73 µM,2.26 µM (inactive),4.93 µM (inactive),6.37 µM (inactive),2.17 µM (inactive),13.2 µM (inactive),4.01 µM (inactive),6.37 µM (inactive),1.37 µM (inactive),4.47 µM (inactive),5.33 µM (inactive),3.11 µM (inactive),6.62 µM (inactive),5.77 µM (inactive),6.3 µM (inactive)
Cc1ccc([S+]([O-])/C=C(\NC(=O)OCc2ccccc2)C(F)(F)F)cc1 (stereo not given),53.3 µM (inactive),41 µM (inactive),> 100 µM (inactive),77.3 µM (inactive),45.7 µM (inactive),33.4 µM,32.1 µM (inactive),32.2 µM (inactive),35.2 µM (inactive),34.4 µM (inactive),33.4 µM (inactive),33.1 µM (inactive),36.9 µM (inactive),35.5 µM (inactive),–,> 100 µM (inactive),30.4 µM (inactive),78 µM (inactive),–,22.1 µM (inactive)
CC(C(=O)NCNC(=O)c1ccccc1)C(=O)NCc1ccccc1 (stereo not given),> 100 µM (inactive),> 100 µM (inactive),> 100 µM (inactive),> 100 µM (inactive),> 100 µM (inactive),> 100 µM,> 100 µM (inactive),> 100 µM (inactive),> 100 µM (inactive),> 100 µM (inactive),> 100 µM (inactive),> 100 µM (inactive),> 100 µM (inactive),> 100 µM (inactive),> 100 µM (inactive),> 100 µM (inactive),> 100 µM (inactive),> 100 µM (inactive),> 100 µM (inactive),–
CNC(=O)N(CCC#N)CCCN(C(=O)N(C)C)c1ccccc1,> 100 µM (inactive),> 100 µM (inactive),> 100 µM (inactive),> 100 µM (inactive),> 100 µM (inactive),> 100 µM,> 100 µM (inactive),> 100 µM (inactive),> 100 µM (inactive),> 100 µM (inactive),> 100 µM (inactive),> 100 µM (inactive),> 100 µM (inactive),> 100 µM (inactive),> 100 µM (inactive),> 100 µM (inactive),14.5 µM (inactive),> 100 µM (inactive),> 100 µM (inactive),> 100 µM (inactive)
O=C(/C=C\c1ccc(-c2ccccc2)cc1)c1cccs1,11.6 µM (inactive),> 79.6 µM (inactive),15.6 µM (inactive),5.56 µM (inactive),27.4 µM (inactive),7.74 µM,3.38 µM (inactive),3.56 µM (inactive),–,> 69.8 µM (inactive),22 µM (inactive),26.7 µM (inactive),6.44 µM (inactive),10.9 µM (inactive),22.5 µM (inactive),64.9 µM (inactive),2.7 µM (inactive),> 100 µM (inactive),3.23 µM (inactive),> 100 µM (inactive)
COC1OC(Cn2c(C)nc(Br)c2Br)C(O)C(O)C1O (stereo not given),> 100 µM (inactive),> 100 µM (inactive),> 100 µM (inactive),> 100 µM (inactive),> 100 µM (inactive),> 100 µM,> 100 µM (inactive),> 100 µM (inactive),> 100 µM (inactive),–,> 100 µM (inactive),> 100 µM (inactive),> 100 µM (inactive),> 100 µM (inactive),–,> 100 µM (inactive),> 10 µM (inactive),> 100 µM (inactive),> 100 µM (inactive),> 100 µM (inactive)
CC(C)(C)NC(=S)N/N=C/c1ccccn1,0.0545 µM (active),2.13 µM (inactive),18.3 µM (inactive),2.04 µM (inactive),< 0.01 µM (active),< 0.0159 µM,< 0.0452 µM (active),< 0.01 µM (active),3.72 µM (inactive),1 µM (active),–,0.0343 µM (active),0.612 µM (active),< 0.01 µM (active),0.863 µM (active),1.96 µM (inactive),< 0.01 µM (active),< 0.0467 µM (active),< 0.0106 µM (active),3.4 µM (inactive)
O=C(Nc1ccn(C2CCC(CO)O2)c(=O)n1)c1ccccc1 (stereo not given),> 100 µM (inactive),> 100 µM (inactive),> 100 µM (inactive),> 100 µM (inactive),> 100 µM (inactive),> 100 µM,> 100 µM (inactive),> 100 µM (inactive),> 100 µM (inactive),> 100 µM (inactive),> 100 µM (inactive),> 100 µM (inactive),> 100 µM (inactive),> 100 µM (inactive),> 100 µM (inactive),> 100 µM (inactive),> 100 µM (inactive),> 100 µM (inactive),> 100 µM (inactive),> 100 µM (inactive)
CN1CC[C@]23c4c5ccc(O)c4OC2c2[nH]ncc2C[C@H]3[C@H]1C5 (stereo not given in full),> 100 µM (inactive),> 100 µM (inactive),> 100 µM (inactive),> 100 µM (inactive),> 100 µM (inactive),> 100 µM,> 100 µM (inactive),> 100 µM (inactive),> 100 µM (inactive),> 100 µM (inactive),> 100 µM (inactive),> 100 µM (inactive),> 100 µM (inactive),> 100 µM (inactive),> 100 µM (inactive),> 100 µM (inactive),> 100 µM (inactive),> 100 µM (inactive),> 100 µM (inactive),> 100 µM (inactive)
CC(C)C[C@H](NC(=O)[C@H](Cc1cccc2ccccc12)NC(=O)N1CCOCC1)B(O)O,0.00362 µM (active),< 0.0107 µM (active),< 0.01 µM (active),< 0.01 µM (active),< 0.01 µM (active),< 0.0202 µM,< 0.01 µM (active),< 0.0444 µM (active),< 0.01 µM (active),0.000104 µM (active),< 0.01 µM (active),0.149 µM (active),< 0.0128 µM (active),0.000555 µM (active),< 0.01 µM (active),0.008 µM (active),< 0.0126 µM (active),< 0.01 µM (active),< 0.01 µM (active),< 0.01 µM (active)
